Assay results: patent US20230340012A1, “NATURAL AND SYNTHETIC COMPOUNDS FOR TREATING CANCER AND OTHER DISEASES” (PACIFIC ARROW LIMITED, priority 2009, published 2023)

Test system: cancer cells
Assay: MTT cytotoxic assay of esterification products (Cytotoxicity activity)
Type: cell-based, human
Details: MTT cytotoxic assay, isolated esterification products of E4A
Text: The peaks, fractions and compounds are selected according to the activities of times studies and the changes of peaks. Selecting the HPLC fractions for isolation is according to the cytotoxic activity of the reaction product obtained at a specific time. The compounds having strong to weak activities are selected and isolated. Selecting the HPLC fractions for isolation may be according to the cytotoxic activity of times studies and the change of peaks. The anti-cancer activities are the MTT studies of bone (U2OS), lung (H460), bladder (HTB-9), ovary (ES2), colon (HCT116), pancreas (Capan), ovary(OVCAR3), prostate (DU145), skin (SK-Mel-5), mouth (KB), kidney (A498), breast (MCF-7), liver (HepG2), brain (T98G), leukemia (K562), cervix (HeLa).
Esterification of compound (A), (B), (C), (D1), (D2), (E), (F), (G), (H1), (H2), E4A, E4A2Y, (P1), P(2), terpene, isoprene, triterpenes, hydroxylated triterpenes, with acyl halide, wherein the halide comprise chloride, bromide, fluoride and iodide, wherein the acyl halide comprise acyl chloride, wherein acyl chloride comprise tigloyl chloride, angeloyl chloride, acetyl chloride, crotonoyl chloride, 3,3-Dimethylacryloyl chloride, senecioyl chloride, cinnamoyl chloride, pentenoyl chloride, hexanoyl chloride, benzoyl chloride, ethylbutyryl chloride, propionyl chloride, 2-propenoyl chloride, isobutyryl chloride, butyryl chloride, (2E)-2-pentenoyl chloride, 4-Pentenoyl chloride, 5-hexenoyl chloride, heptanoyl chloride, octanoyl chloride, nonanoyl chloride, decanoyl chloride, Lauroyl chloride, myristoyl chloride, oleoyl chloride. The compounds vary in composition when the time or temperature of the reaction is changed. The peaks, fractions and compounds are selected according to the activities of times studies and the changes of peaks. The compounds having strong to weak activities are selected and isolated. The anti-cancer activities (Cytotoxic Assay) are the MTT studies of bone (U2OS), lung (H460), bladder(HTB-9), ovary (ES2), colon (HCT116), pancreas (Capan), ovary(OVCAR3), prostate (DU145), skin (SK-Mel-5), mouth (KB), kidney (A498), breast (MCF-7), liver (HepG2), brain (T98G), leukemia (K562), cervix (HeLa). The active esterification products are purified with HPLC. The reaction product of mixtures and individual compounds are tested with MTT Cytotoxic Assay. Details of method are in Experiment 3 of the present application. A second esterification of compound can be selected from the above experiment results to produce new active compounds. A partial esterification compound is selected from the above experiments to perform a second or repeated with a third esterification with different acyl chloride in order to produce new active compounds with the experiments in the present application.
Method: 40 mg of triterpene core (fraction IV) was dissolved in 1 ml pyridine in a 50 ml tube. Reaction is started by adding 0.2 ml of acyl chloride (Tigloyl chloride, angeloyl chloride, Acetyl chloride, Crotonoyl chloride, 3,3-Dimethylacryloyl chloride(senecioyl chloride), Cinnamoyl chloride, Pentenoyl chloride, Hexanoyl chloride, benzoyl chloride or Ethylbutyryl chloride). The mixture is stirred for 5 sec, 1 min, 2 min, 5 min, 10 min, 30 min, 1 hr, 2 hr, 18 hr, 2 days or 3 days at 0° C., 25° C. or 75° C. temperature. At the end of reaction, 5 ml of 2N HCl or 1 M NaHCO3 is added to the reaction mixture. The solution is then extracted 3 times with 10 ml of ethyl acetate which is then evaporated under vacuum and at 45C and lyophilization. The reaction product is dissolved in 80% acetonitrile - 0.005% Trifluoroacetic acid or DMSO; and was separated with HPLC. Selecting the HPLC fractions for isolation is according to the cytotoxic activity of the reaction product obtained at a specific reaction time. The active esterification products are purified with HPLC. The reaction product of mixtures and individual compounds are tested with MTT cytotoxic assay. Structures are determined with NMR. […]

For `CC=C(C)C(=O)OCC1(C)C(OC(=O)C(C)=CC)CCC2(C)C1CCC1(C)C2CC=C2C3CC(C)(C)C(OC(=O)C(C)=CC)C(OC(=O)C(C)=CC)C3(COC(=O)C(C)=CC)C(OC(=O)C(C)=CC)CC21C` (centres unmarked) [Compound A19], the Cytotoxicity activity was “none”.
In the case of `CC=C(C)C(=O)OCC12C(O)CC3(C)C(=CCC4C5(C)CCC(O)C(C)(CO)C5CCC43C)C1CC(C)(C)C(OC(=O)C(C)=CC)C2OC(=O)C(C)=CC` (centres unmarked) [Compound A20], the Cytotoxicity activity is reported as “moderate”.
In the case of `CC=C(C)C(=O)OCC1(C)C(O)CCC2(C)C1CCC1(C)C2CC=C2C3CC(C)(C)C(OC(=O)C(C)=CC)C(OC(=O)C(C)=CC)C3(CO)C(O)CC21C` (centres unmarked) [Compound A21], the Cytotoxicity activity is reported as “moderate”.
For `CC=C(C)C(=O)OC1C(OC(=O)C(C)=CC)C2(CO)C(OC(=O)C(C)=CC)CC3(C)C(=CCC4C5(C)CCC(O)C(C)(CO)C5CCC43C)C2CC1(C)C` (centres unmarked) [Compound A22], the Cytotoxicity activity was “moderate”.
With `CC=C(C)C(=O)OC1C(OC(=O)C(C)=CC)C2(CO)C(O)CC3(C)C(=CCC4C5(C)CCC(OC(=O)C(C)=CC)C(C)(CO)C5CCC43C)C2CC1(C)C` (centres unmarked) [Compound A23] the Cytotoxicity activity was “moderate”.
With `CC=C(C)C(=O)OC1C(OC(=O)C(C)=CC)C2(CO)C(O)CC3(C)C(=CCC4C5(C)CCC(O)C(C)(CO)C5CCC43C)C2CC1(C)C` (centres unmarked) [Compound A24] the Cytotoxicity activity was “moderate”.
With `CC=C(C)C(=O)OCC12C(O)CC3(C)C(=CCC4C5(C)CCC(O)C(C)(CO)C5CCC43C)C1CC(C)(C)C(OC(=O)C(C)=CC)C2O` (centres unmarked) [Compound A25] the Cytotoxicity activity was “moderate”.
`CC=C(C)C(=O)OCC12C(O)CC3(C)C(=CCC4C5(C)CCC(O)C(C)(CO)C5CCC43C)C1CC(C)(C)C(O)C2OC(=O)C(C)=CC` (centres unmarked) [Compound A26] was tested, and the Cytotoxicity activity was “moderate”.
`CC=C(C)C(=O)OCC12C(O)CC3(C)C(=CCC4C5(C)CCC(OC(=O)C(C)=CC)C(C)(CO)C5CCC43C)C1CC(C)(C)C(O)C2O` (centres unmarked) [Compound A27] was tested, and the Cytotoxicity activity was “moderate”.
With `CC=C(C)C(=O)OCC12C(OC(=O)C(C)=CC)CC3(C)C(=CCC4C5(C)CCC(O)C(C)(CO)C5CCC43C)C1CC(C)(C)C(O)C2O` (centres unmarked) [Compound A28] the Cytotoxicity activity was “moderate”.
With `CC=C(C)C(=O)OCC1(C)C(O)CCC2(C)C1CCC1(C)C2CC=C2C3CC(C)(C)C(OC(=O)C(C)=CC)C(O)C3(CO)C(O)CC21C` (centres unmarked) [Compound A29] the Cytotoxicity activity was “moderate”.
`CC=C(C)C(=O)OCC1(C)C(O)CCC2(C)C1CCC1(C)C2CC=C2C3CC(C)(C)C(O)C(OC(=O)C(C)=CC)C3(CO)C(O)CC21C` (centres unmarked) [Compound A30] was tested, and the Cytotoxicity activity was “moderate”.
In the case of `CC=C(C)C(=O)OCC1(C)C(OC(=O)C(C)=CC)CCC2(C)C1CCC1(C)C2CC=C2C3CC(C)(C)C(O)C(O)C3(CO)C(O)CC21C` (centres unmarked) [Compound A31], the Cytotoxicity activity is reported as “moderate”.
With `CC=C(C)C(=O)OCC1(C)C(O)CCC2(C)C1CCC1(C)C2CC=C2C3CC(C)(C)C(O)C(O)C3(CO)C(OC(=O)C(C)=CC)CC21C` (centres unmarked) [Compound A32] the Cytotoxicity activity was “moderate”.
`CC(C)=CC(=O)OCC1(C)C(O)CCC2(C)C1CCC1(C)C2CC=C2C3CC(C)(C)C(O)C(O)C3(CO)C(O)CC21C` (centres unmarked) [Compound B1] was tested, and the Cytotoxicity activity was “moderate”.
With `CC(C)=CC(=O)OCC12C(O)CC3(C)C(=CCC4C5(C)CCC(O)C(C)(CO)C5CCC43C)C1CC(C)(C)C(O)C2O` (centres unmarked) [Compound B2] the Cytotoxicity activity was “moderate”.
In the case of `CC(C)=CC(=O)OCC1(C)C(O)CCC2(C)C1CCC1(C)C2CC=C2C3CC(C)(C)C(O)C(O)C3(COC(=O)C=C(C)C)C(O)CC21C` (centres unmarked) [Compound B3], the Cytotoxicity activity is reported as “strong”.
For `CC(C)=CC(=O)OCC1(C)C(O)CCC2(C)C1CCC1(C)C2CC=C2C3CC(C)(C)C(OC(=O)C=C(C)C)C(O)C3(COC(=O)C=C(C)C)C(O)CC21C` (centres unmarked) [Compound B4], the Cytotoxicity activity was “moderate”.
For `CC(C)=CC(=O)OCC1(C)C(O)CCC2(C)C1CCC1(C)C2CC=C2C3CC(C)(C)C(O)C(OC(=O)C=C(C)C)C3(COC(=O)C=C(C)C)C(O)CC21C` (centres unmarked) [Compound B5], the Cytotoxicity activity was “moderate”.
With `CC(C)=CC(=O)OCC1(C)C(OC(=O)C=C(C)C)CCC2(C)C1CCC1(C)C2CC=C2C3CC(C)(C)C(O)C(O)C3(COC(=O)C=C(C)C)C(O)CC21C` (centres unmarked) [Compound B6] the Cytotoxicity activity was “moderate”.
